Bridge positions count the residues as written; N and C are the ends. Square brackets hold non-standard residues; d marks the D form. Peptide text beside a SMILES is read from it. hArg = N=C(N)NCCCC[C@H](N)C(=O)O; Mpa = O=C(O)CCS

In assay [1] the test system is platelets. The experiment in a line: Release of sCD154 from stimulated platelets in platelet-rich plasma (ELISA). The assay is classed as cell-based, human. Particulars: unstirred, FIG. 12B. A general note: ELISA stands for enzyme-linked immunosorbent assay.
For assay [2], the system named is platelets in whole blood. In words: Perfusion chamber: thrombus formation of whole blood on protein-coated surface under shear. Type of assay: cell-based, human. On the procedure:
The effect of CD154 on the aggregation of platelets under conditions of high shear stress were evaluated. Recombinant CD154 (rCD154 or rCD40L) was compared to fibrinogen (Fg) in its ability to form thrombi as well as in combination with Fg. Controls also included CD154 in which the KGD eptifibatide-recognition sequence was mutated to KGE (CD154(KGE) or CD40L(KGE)). Briefly, a silicone gasket with a flow path height of 127 μm was placed between a flat perfusion chamber (Glycotech, Rockville, Md.) and a protein-coated petri dish as described (Andre, P. et al., Nature Medicine, 8:247-252 (2002)). Petri dishes were coated with rCD40L, Fibrinogen (Fg), rCD40L+Fg, mutated CD40L (CD40L(KGE)), CD40L(KGE)+Fg. In one experiment, the glycoprotein IIb/IIIa antagonist eptifibatide (2 μM) was incubated with whole blood before perfusion over the rCD40L-coated surface. When Fg was coated with either rCD40L or CD40L(KGE), each molecule was deposited at 25 μg/cm^2. Coating of the proteins was performed using the spray method in which 25 μl of a 1 mg/ml protein solution is coated onto the plastic with a retouching air brush resulting in a concentration of 25 μg/cm^2 (Houdijk, WP et al., J. Clin. Invest., 75:531-540 (1985)). Human peripheral blood was collected on PPACK (40 μmol/L final concentration) and perfused for 4 minutes over the protein-coated surface. Shear rates of 1500-1600/s, 500-600/s and 100-200/s, were generated with flow rates of ˜0.6, 0.25 and 0.075 ml/min, respectively. Measurements of thrombotic deposits were performed using the Simple PCI software image analysis program (Technical Instrument, Burlingame, Calif.).

For assay [3], the system named is washed platelets. The experiment in a line: Western blot analysis of immunoprecipitated platelet CD154 (hydrolysis to 18 kDa sCD154). Type of assay: cell-based, human. An excerpt:
As previously described, CD154 exists as a 33/31 kDa doublet in unstimulated platelets.
(Immunoblotting shows a protein as a band on a membrane.)

The subject of assay [4] is platelets. In words: Platelet function (Accumetrics RPFA) in patients undergoing PCI. Type of assay: in vivo, human. Particulars: 10 minutes post final bolus. On the procedure: (§1) Patients (n=45) undergoing PCI were enrolled. The study was approved by the IRB and all patients signed informed consent. Exclusion criteria included higher risk clinical scenarios mandating, according to institutional clinical practice, the use of GP IIb/IIIa antagonists (i.e., acute ST elevation MI or non q-wave MI with CPK elevation, pain at rest with EKG changes <24 hours, visible thrombus, pain refractory to heparin), pre-procedural GP IIb/IIIa inhibitor treatment, restenotic and graft lesions, and standard conditions excluding GP IIb/IIIa inhibitor use.
(§2) All patients received aspirin and intravenous heparin (50-70U/kg) monitored by activated clotting time (ACT) during the procedure. Patients were administered either no GP IIb/IIIa inhibitor, eptifibatide (180 μg/kg double bolus followed by 2 μg/kg/min for 16 h), or abciximab (0.25 mg/kg bolus intravenously followed by 0.125 μg/kg/min for 12 h) at the discretion of the primary operator. Platelet function was monitored using PPACK-anticoagulated blood and the Accumetrics RPFA device at baseline and 10 min post-final bolus. Interventionalists were blinded to RPFA results and not permitted to modify GP IIb-IIIa inhibitor dosing. Post-PCI, patients received clopidogrel (300 mg PO) followed by 75 mg daily.

Assay [5] is described as follows: Plasma inflammatory markers after PCI (ELISA). Type of assay: in vivo, human. On the procedure: as §1, §2
Venous blood samples were collected prior to (t=0) and at 30 minutes, 2 hours, and 24 hours after the angioplasty wire was advanced across the lesion. Blood was collected into 10 mL tubes with either EDTA (for sCD 154 analysis) or PPACK (for all other analyses) anticoagulant, centrifuged at 4° C., and stored at −80° C. until analysis.
Inflammatory markers in plasma samples were quantified by commercially available ELISA for sCD154 (Alexis BioChemical) with modification (12), RANTES, IL6, sICAM-1 (BioSource), and CRP (Alpha Diagnostic International).
Primary endpoint data are presented as mean±SE. Data were log transformed to achieve a normal distribution verified by Kolmogorov-Smirnov test for normality. Statistical comparisons were performed using two-way ANOVA to determine a difference in mean values over time between the 3 groups. Pair-wise comparisons were performed when the ANOVA false-positive rate was ≦5%. A Bonferroni corrective for 3 pair-wise comparisons was applied, in which the p-value of […] was used to signify a false-positive rate of 5%. For ANOVA with a false-positive rate of ≧5%, the pair-wise comparisons were reported to be statistically nonsignificant (NS). Baseline and procedural characteristics data were analyzed with standard one way ANOVA for continuous data in more than 3 groups and a student's t-test for comparison of 2 groups. A Mann-Whitney Rank Sum test was used for nominal data. Statistical significance was assumed if the false positive rate was ≦5%.

Assay [6] has as its system washed platelets. The experiment in a line: Fibrinogen binding to washed platelets and microparticle generation (flow cytometry). Type of assay: cell-based, human. The procedure:
Venous blood was collected from normal donors into ACD buffer (85 mM Sodium Citrate, […] and 71 mM Citric acid) containing 0.05 μg/ml prostaglandin 12(PGI2). Blood was later centrifuged at 160×g for 20 minutes to collect platelet rich plasma (PRP). PRP was centrifuged at 1100×g for 10 minutes to sediment platelets. Platelets were washed twice with CGS buffer (13 mM trisodium citrate, 120 mM sodium chloride and 30 mM dextrose pH 7.0). The first wash had 0.03 μg/ml PGI2. Washed platelets were finally suspended in Tyrodes-Hepes buffer (12 mM sodium bi-carbonate, 138 mM sodium chloride, 5.5 mM glucose, 2.9 mM potassium chloride, 10 mM Hepes, 1 mM calcium chloride and 1 mM magnesium chloride, pH 7.4).
Washed platelets (1×10^7/ml) were incubated for 60 minutes at 37° C. with 2 μM soluble CD154 (sCD154) or mutant sCD154 (D117E mutation in the KGD sequence) in the presence or absence of eptifibatide or anti-CD40 antibody. All incubations had 100 nM Alexa-Fibrinogen (Molecular probes, Eugene, Oreg.). Samples were diluted 10 fold with stain buffer (BD Pharmingen, Los Angeles, Calif.) after incubation and analyzed by flow cytometry (FACSort, BD, San Jose, Calif.).
On the technique in general: In flow cytometry, cells or beads pass a laser one at a time.

As to `N=C(N)NCCCC[C@@H]1NC(=O)CCSSC[C@@H](C(N)=O)NC(=O)[C@@H]2CCCN2C(=O)[C@H](Cc2c[nH]c3ccccc23)NC(=O)[C@H](CC(=O)O)NC(=O)CNC1=O` [eptifibatide] ([Mpa][hArg]GDWPC-NH2; disulfide 1-7), the “sCD154 shedding from TRAP-activated platelets without aggregation” value in assay [1] is “inhibited”. The “Binding of platelets to the rCD40L” value in assay [2] (eptifibatide 2 μM incubated with whole blood) was “inhibited”. For the same molecule, the “hydrolysis of CD154 and release of sCD154 from stimulated platelets” value in assay [3] (5 μmol/L TRAP plus 2.5 μmol/L eptifibatide, 30 minutes) is listed as “inhibited”. Besides, the “CD154 hydrolysis and appearance of the soluble 18 kDa fragment” value in assay [3] (TRAP aggregation, 5 μM eptifibatide) was “prevented”. The “Platelet inhibition (% inhibition)” value in assay [4] is 98±3%. For the same molecule, in assay [5] (2-24 hours after PCI, not statistically significant), the “rise of sICAM-1 and IL-6 after PCI” value is reported as “lowest level of rise”. Further, the “plasma sCD154 levels after PCI” value in assay [5] (30 minutes, 2 hours, 24 hours versus baseline) is listed as “significantly lower than baseline”. For the same molecule, the “plasma RANTES levels after PCI” value in assay [5] (versus baseline) is recorded as “significant reductions”. Further, the “effect on sCD154-induced fibrinogen binding and microparticle generation” value in assay [6] (2 μM sCD154, eptifibatide 2.5 μM) is “inhibited”.

B1: rsCD154: bacterially expressed recombinant human soluble CD154 (108 a.a-261 a.a.), 18-kDa protein (protein)
chain: ENSFEMQKGDQNPQIAAHVISEASSKTTSVLQWAEKGYYTMSNNLVTLENGKQLTVKRQGLYYIYAQVTFCSNREASSQAPFIASLCLKSPGRFERILLRAANTHSSAKPCGQQSIHLGGVFELQPGASVFVNVTDPSQVSHGTGFTSFGLLKL
With B1, the “aggregation process (mean thrombus area) on coated surface versus Fg” value in assay [2] (shear rate of 1500-1600/s, 25 μg/cm^2 coating) is “significantly enhances”. The “fibrinogen binding to platelets and generation of microparticles” value in assay [6] (2 μM protein, 60 minutes at 37° C., FIG. 10) is “induced”.

For the origin of these results see patent US20040072750A1, “Compounds and methods for the modulation of CD154” (priority 2001, published 2004).
